#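 Test compounds were applied to cells in 96-well plates for 48 hours at 5 doses. The concentration for 50% growth inhibition is given as GI50. TGI: concentration producing complete growth inhibition.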 Where a SMILES comes first, the peptide text is derived from it. [ ]: non-standard residue; d: D form. pGlu = O=C1CC[CH](C(=O)O)N1; Thz = O=C(O)[CH]1CSCN1
# Legend:
# Assay in all cases: NCI tumour cell line growth inhibition, 48 h
# HS 578T breast = tested on: HS 578T breast
# XF 498 CNS = tested on: XF 498 CNS
# DMS 273 small cell lung = tested on: DMS 273 small cell lung
# LXFL 529 NSCLC = tested on: LXFL 529 NSCLC
# HOP-18 NSCLC = tested on: HOP-18 NSCLC
# KM20L2 colon = tested on: KM20L2 colon
# SNB-78 CNS = tested on: SNB-78 CNS
# DLD-1 colon = tested on: DLD-1 colon
# P388/ADR leukemia = tested on: P388/ADR leukemia
# DMS 114 small cell lung = tested on: DMS 114 small cell lung
# SN12K1 renal = tested on: SN12K1 renal
# P388 leukemia = tested on: P388 leukemia
# M19-MEL melanoma = tested on: M19-MEL melanoma
# RXF-631 renal = tested on: RXF-631 renal
Compound,TGI (HS 578T breast) [µM],other results
Nc1nc(Cl)cc(NCC2(CCO)CCC2)n1,> 100,
COC1OC2COC1(OCc1ccccc1)C1OC(C)(C)OC21 (stereo unspecified),> 100,
O=C(OC1=CCN(Br)C1=O)C1=C(O)C(=O)N(Br)C1,> 100,
C=C1C(C(=O)OC)[C@H]1C(=O)OC (stereo partly specified),> 100,
CCCCCCN(CCCCCC)CCC(=O)c1ccc2cc(Br)c3ccccc3c2c1,> 100,
CC(C)C1CSC2N1C(=O)C2(OCc1ccccc1)C1CC1 (stereo unspecified),> 100,
COc1ccc(/[N+]([O-])=C/c2ccc(OC(=S)S)c(OC)c2)cc1,> 100,
COC(=O)[C@H](Cc1ccccc1)NC(=O)c1ccc(CNC(=O)/C=C/c2ccc(OCc3ccccc3)cc2)cc1,21.1,
CCOC(=O)c1c(N)sc2c1CC(C)CC2 (stereo unspecified),> 100,
O=C(Cc1ccc2ccccc2c1)NCc1ccc(C(=O)NCCc2ccccc2)cc1,> 100,
COc1ccc(/C=C2\N=C(N3CCCC(CO)C3)NC2=O)cc1 (stereo unspecified),> 100,
ClCc1nc2ccccc2[nH]1,> 100,
Cc1ccc2c(c1)nc1n2C(c2c(F)cccc2F)SC1 (stereo unspecified),92.7,
O=S(=O)(O)c1ccc(N=Nc2ccccc2)cc1,> 100,
CCn1c(SCC(=O)N/N=C2\SCC(=O)N2c2ccc(C)cc2)nc2ccccc2c1=O,41.7,
CC1C(C)(C)C23CC12C1(OCCO1)C3Br (stereo unspecified),> 100,
O=c1onc2n1-c1ccc(Cl)cc1C(=S)N1CSCC21 (stereo unspecified),53.9,
FC1(F)ON2CCc3ccccc3C2[C@H]1c1ccccc1 (stereo partly specified),> 100,GI50 (HS 578T breast): 45.9 µM
C=C(/C=C/C=C(\C)CCC=C(C)C)[C@@H]1CC[C@]2([C@H](CCCO)/C(=C(/C)C=O)CC[C@]2(C)O)[C@@H]1O,,TGI (XF 498 CNS): 32.8 µM; TGI (DMS 273 small cell lung): 27.9 µM; TGI (LXFL 529 NSCLC): 33.7 µM; TGI (HOP-18 NSCLC): 60.4 µM; TGI (KM20L2 colon): > 100 µM; TGI (SNB-78 CNS): 33.5 µM; TGI (DLD-1 colon): 38.7 µM
COC(=O)CCc1ccc(CCC(=O)OC)cc1,> 100,
NS(=O)(=O)c1ccc(NC(=O)N/N=C/c2ccccc2[N+](=O)[O-])cc1,> 100,
C=C1C2CCC3C4(C)CCCC(C)(C(=O)O)C4CCC3(C2)C1OC(=O)/C(C)=C/C (stereo unspecified),> 100,
O=c1[nH]c(NCc2cccnc2)nc2nc[nH]c12,> 100,
COC(=O)C1=C(C)NC(=O)N2[C@@H](CCOCc3ccccc3)CC[C@@H]12,> 50,
COC(=O)C(CNC(=O)/C=C/c1ccc(OC)c(OC)c1)NC(=O)/C=C/c1ccc(OC)c(OC)c1 (stereo unspecified),> 100,

Compound,TGI (HS 578T breast) [µM],other results
CC(C)(C)c1ccc2c(c1)OP1(Oc3c(Cl)cc(Cl)c4cccnc34)(O2)Oc2ccc(C(C)(C)C)cc2O1,,TGI (XF 498 CNS): 26.7 µM; TGI (P388/ADR leukemia): 9.93 µM; TGI (DMS 114 small cell lung): 9.57 µM; TGI (DMS 273 small cell lung): 18.3 µM; TGI (HOP-18 NSCLC): 32.4 µM; TGI (KM20L2 colon): 14.6 µM; TGI (SN12K1 renal): 19.6 µM; TGI (P388 leukemia): 2.61 µM; TGI (SNB-78 CNS): > 86.8 µM; TGI (DLD-1 colon): 18.1 µM
COc1ccc(C2CC(c3c(O)ccc4ccccc34)=NN2)cc1OC (stereo unspecified),7.43,
CC(NC(=O)C1CCC(=O)N1)C(=O)N1CCCC1C(N)=O (stereo not drawn) ([pGlu]-Ala-Pro-NH2; configuration not given here),> 100,
S=P1(Sc2ccccc2)Oc2ccc3ccccc3c2-c2c(ccc3ccccc23)O1,,TGI (XF 498 CNS): > 100 µM; TGI (M19-MEL melanoma): > 100 µM; TGI (P388/ADR leukemia): > 100 µM; TGI (DMS 114 small cell lung): > 100 µM; TGI (DMS 273 small cell lung): > 100 µM; TGI (HOP-18 NSCLC): > 100 µM; TGI (KM20L2 colon): > 100 µM; TGI (SN12K1 renal): > 100 µM; TGI (P388 leukemia): > 100 µM; TGI (SNB-78 CNS): > 100 µM; TGI (DLD-1 colon): > 100 µM
O=C1c2ccccc2N(O)C1(c1ccccc1)C1CCCC=C1N1CCOCC1 (stereo unspecified),,TGI (M19-MEL melanoma): > 100 µM; TGI (DMS 114 small cell lung): > 100 µM; TGI (DMS 273 small cell lung): > 100 µM; TGI (LXFL 529 NSCLC): > 100 µM; TGI (KM20L2 colon): > 100 µM; TGI (SNB-78 CNS): > 100 µM; TGI (DLD-1 colon): > 100 µM
c1ccc2c3c(ccc2c1)-c1[nH]ncc1CCO3,,TGI (XF 498 CNS): 79.8 µM; TGI (M19-MEL melanoma): > 100 µM; TGI (P388/ADR leukemia): > 100 µM; TGI (DMS 114 small cell lung): > 82.4 µM; TGI (DMS 273 small cell lung): > 100 µM; TGI (HOP-18 NSCLC): > 100 µM; TGI (KM20L2 colon): > 95.1 µM; TGI (SN12K1 renal): > 79.8 µM; TGI (P388 leukemia): > 100 µM; TGI (SNB-78 CNS): > 100 µM; TGI (DLD-1 colon): > 100 µM
Cc1nc2c(c(N3CCN(C)CC3)n1)Cc1ccccc1-2,> 100,
CC(NC1=NCCO1)c1ccccc1Cl (stereo unspecified),> 100,
COC(=O)c1cc2c(c(C(=O)OC)c1)CCC2,> 100,
CCCCSC1=N/C(=C\c2ccccc2O)C(=O)N1,> 100,
CN1CCC2(CC1)SSC1(CCN(C)CC1)S2,> 100,
C#C[C@]1(O)CC[C@H]2[C@@H]3CCC4=C/C(=N\OCCN5CCCCC5)CC[C@]4(C)[C@H]3CC[C@@]21C,8.86,
S=C(NCc1ccccc1)Nc1sc(=NCc2ccccc2)nc2sc3c(c12)CCN(N1CCc2c(sc4nc(=NCc5ccccc5)sc(NC(=S)NCc5ccccc5)c24)C1)C3,> 100,
COc1ccc(S(=O)(=O)Nc2ccc(-c3csc(N4C(=O)/C(=C/c5ccccc5[N+](=O)[O-])N=C4c4ccccc4)n3)cc2)cc1Cl,> 100,
CC(C)(C)C1=C(Br)C(F)(C(C)(C)C)OP1(=O)c1ccccc1 (stereo unspecified),53.8,
CCOC(=O)c1c(O)cn2c1[nH]c1cccc3cccc2c31,> 100,
CCOC(=O)CNC(=O)C(CCC(=O)N(C)O)NC(=O)CCC(N)C(=O)O (stereo unspecified),> 100,
COC(NC(=O)Nc1ccc(C)cc1)(C(F)(F)F)C(F)(F)F,> 100,
Nc1ncnc2c1ncn2[C@H]1C=C[C@@H](NO)C1,> 100,
COc1ccc(/C=N\N(C)Cc2cccc3ccsc23)cc1,> 100,
Cc1c(NC(=S)Nc2ccc([N+](=O)[O-])cc2)c(=O)n(-c2ccccc2)n1C,> 100,
Cc1cc(N(CCC#N)CCC#N)ccc1/C(N=Nc1ccc([N+](=O)[O-])cc1)=N\NC(=O)c1cc(Cl)ccc1O,91.7,
O=c1[nH]c(Nc2ccc(Br)c(C(F)(F)F)c2)nc2nc[nH]c12,45.6,
CN(C)Cc1cc(Cl)c(O)c(CN(C)C)c1,> 100,
O=C1C(Cl)=C(Cl)C(=O)C(CCNc2nccs2)=C1Cl,75.3,

Compound,TGI (HS 578T breast) [µM],other results
COC(=O)C(Cc1c[nH]c2ccccc12)NC(=O)C(Cc1cnc[nH]1)NC(=O)C1CCC(=O)N1C(=O)OCc1ccccc1 (stereo unspecified),> 100,
NCC(=O)Nc1ccccc1,> 100,
Cc1ncn(-c2ccccc2O)c1C,> 100,
Cc1nc(OCc2ccccc2)c2ncn(CCO)c2n1,> 100,
NC1=Nc2ccccc2Sc2nncn21,> 100,
CCOC(=O)C(NC(=O)c1cccc(Cl)c1)(Nc1ccc(S(=O)(=O)Nc2cc(C)on2)cc1)C(F)(F)F (stereo unspecified),> 100,
COC(=O)c1ccc(NCc2cc(OC)ccc2OC)cc1,> 100,
CCOP(=O)(CC(=O)C1CC1)OCC,> 100,
Cc1ccc(S(=O)(=O)n2cc(C=O)c(-c3cn(S(=O)(=O)c4ccc(C)cc4)cc3-c3cn(S(=O)(=O)c4ccc(C)cc4)cc3C=O)c2)cc1,> 100,
COc1cc(C2C=C(c3ccccc3)Oc3cc4c(cc32)OCO4)cc(OC)c1OC (stereo unspecified),> 100,
COC(=O)Nc1nc2ccc(NS(=O)(=O)c3cccs3)cc2[nH]1,36.4,
O=C1CCC(C(=O)N2CSCC2C(=O)O)N1 (stereo unspecified) ([pGlu]-[Thz]-OH; configuration not given here),> 100,
OC1NC2Nc3ccccc3NC2NC1O (stereo unspecified),> 100,
O=C(Nc1ccccc1)N(CCN(Cc1ccccc1)C(=O)Nc1ccccc1)CCN(Nc1ccccc1)C(=O)Nc1ccccc1,> 100,
Cc1cn(C2CC(n3cc(Cn4ccc(=O)[nH]c4=O)nn3)C(CO)O2)c(=O)[nH]c1=O (stereo unspecified),> 100,
O=[N+]([O-])c1ncc(N(CCO)CCO)s1,> 100,
COC(=O)C1=CO[C@@H](C)[C@@H]2Cn3ccc4c5ccccc5nc-4c3C[C@H]12,,TGI (XF 498 CNS): > 100 µM; TGI (M19-MEL melanoma): > 100 µM; TGI (DMS 114 small cell lung): > 100 µM; TGI (DMS 273 small cell lung): > 100 µM; TGI (LXFL 529 NSCLC): > 100 µM; TGI (HOP-18 NSCLC): > 100 µM; TGI (KM20L2 colon): > 100 µM; TGI (SNB-78 CNS): > 100 µM; TGI (DLD-1 colon): > 100 µM; TGI (RXF-631 renal): > 100 µM
C(=N\c1nc2cc3sc(/N=C/c4ccccc4)nc3cc2s1)/c1ccccc1,97.4,
CO/C=C(/C(=O)OC)[C@@H]1C[C@@H]1c1ccc2ccccc2c1,> 100,
Cc1nc(-c2ccccc2)cn2c1nc1ccccc12,> 87.5,
Nn1c(CCCCCCCCc2nnc(-c3c(O)ccc4ccccc34)n2N)nnc1-c1c(O)ccc2ccccc12,> 100,
O=C(O)c1nc2cc(Cl)ccc2[nH]c1=O,> 100,
Fc1cc(C2=Nn3c(COc4ccccc4Cl)nnc3S/C2=C\c2ccc(Cl)cc2)c(Cl)cc1Cl,36.4,
CCOP(=O)(OCC)Oc1c(OC)c2[nH]c(C(=O)OC)cc2c2c(C(=O)O)c[nH]c12,> 100,
COc1ccc(C(=O)/C=C/c2ccc(OCCCCCCCCCCOc3ccc(/C=C/C(=O)c4ccc(OC)cc4)cc3)cc2)cc1,> 100,
